Experimental data taken from the NIST ThermoML archive (doi:10.1021/je0501585).

Assay: xn = mol fraction of the nth substance listed
Conditions: 101 kPa, Liquid; for viscosity: Capillary tube (Ostwald / Ubbelohde) method; for excess molar volume: Direct dilatometry; for speed of sound: Linear variable-path acoustic interferometer

Cc1ccc(C)cc1 [1,4-dimethylbenzene] + CCCCCCCCCC
Conditions | excess molar volume, 303.15 K [m3/mol] | excess molar volume, 308.15 K [m3/mol] | excess molar volume, 313.15 K [m3/mol] | speed of sound, 303.15 K [m/s] | speed of sound, 308.15 K [m/s] | speed of sound, 313.15 K [m/s] | viscosity, 303.15 K [mPa·s] | viscosity, 308.15 K [mPa·s] | viscosity, 313.15 K [mPa·s]
x1 = 0.1533 | 2.83e-07 | 4.89e-07 | 6.99e-07 | 1215.1 | 1192.3 | 1176.9 | 0.729 | 0.678 | 0.66
x1 = 0.2952 | 4.35e-07 | 6.8e-07 | 9.11e-07 | 1220 | 1197.6 | 1182 | 0.68 | 0.639 | 0.623
x1 = 0.4189 | 5.14e-07 | 7.6e-07 | 9.8e-07 | 1225.5 | 1203.1 | 1187.7 | 0.646 | 0.609 | 0.59
x1 = 0.4949 | 5.29e-07 | 7.59e-07 | 9.81e-07 | 1230 | 1207.3 | 1192 | 0.628 | 0.592 | 0.573
x1 = 0.6001 | 4.9e-07 | 7.03e-07 | 9.41e-07 | 1237.9 | 1214.1 | 1198.8 | 0.605 | 0.572 | 0.552
x1 = 0.6938 | 4.26e-07 | 6.32e-07 | 8.76e-07 | 1246.6 | 1221.6 | 1205.6 | 0.588 | 0.557 | 0.538
x1 = 0.7777 | 3.54e-07 | 5.56e-07 | 7.71e-07 | 1255.4 | 1229 | 1212.5 | 0.576 | 0.546 | 0.527
x1 = 0.8604 | 2.73e-07 | 4.55e-07 | 6.47e-07 | 1265.3 | 1238.4 | 1221.3 | 0.568 | 0.539 | 0.519
x1 = 0.9332 | 1.72e-07 | 3.03e-07 | 4.4e-07 | 1274.4 | 1251 | 1232.8 | 0.566 | 0.537 | 0.515
x1 = 1 | 0 | 0 | 0 | 1283.7 | 1271 | 1260 | 0.566 | 0.537 | 0.513
